Experimental data from patent US20120219615A1, “Therapeutic Use of a TLR Agonist and Combination Therapy” (The Trustees of the University of Pennsylvania, priority 2010, published 2012).

Columns and labels:
TLR8 = molecular target: T1, TLR8 (Homo sapiens, UniProt Q9NR97); assay: TNFα production in PBMCs (marker of TLR8 activation); format: cell-based
T1 construct: assessed in peripheral blood mononuclear cells (PBMCs) from 15 healthy donors; endogenous in cells; host or cells: PBMCs from 15 healthy donors
T1 sequence (Q9NR97 27-1041): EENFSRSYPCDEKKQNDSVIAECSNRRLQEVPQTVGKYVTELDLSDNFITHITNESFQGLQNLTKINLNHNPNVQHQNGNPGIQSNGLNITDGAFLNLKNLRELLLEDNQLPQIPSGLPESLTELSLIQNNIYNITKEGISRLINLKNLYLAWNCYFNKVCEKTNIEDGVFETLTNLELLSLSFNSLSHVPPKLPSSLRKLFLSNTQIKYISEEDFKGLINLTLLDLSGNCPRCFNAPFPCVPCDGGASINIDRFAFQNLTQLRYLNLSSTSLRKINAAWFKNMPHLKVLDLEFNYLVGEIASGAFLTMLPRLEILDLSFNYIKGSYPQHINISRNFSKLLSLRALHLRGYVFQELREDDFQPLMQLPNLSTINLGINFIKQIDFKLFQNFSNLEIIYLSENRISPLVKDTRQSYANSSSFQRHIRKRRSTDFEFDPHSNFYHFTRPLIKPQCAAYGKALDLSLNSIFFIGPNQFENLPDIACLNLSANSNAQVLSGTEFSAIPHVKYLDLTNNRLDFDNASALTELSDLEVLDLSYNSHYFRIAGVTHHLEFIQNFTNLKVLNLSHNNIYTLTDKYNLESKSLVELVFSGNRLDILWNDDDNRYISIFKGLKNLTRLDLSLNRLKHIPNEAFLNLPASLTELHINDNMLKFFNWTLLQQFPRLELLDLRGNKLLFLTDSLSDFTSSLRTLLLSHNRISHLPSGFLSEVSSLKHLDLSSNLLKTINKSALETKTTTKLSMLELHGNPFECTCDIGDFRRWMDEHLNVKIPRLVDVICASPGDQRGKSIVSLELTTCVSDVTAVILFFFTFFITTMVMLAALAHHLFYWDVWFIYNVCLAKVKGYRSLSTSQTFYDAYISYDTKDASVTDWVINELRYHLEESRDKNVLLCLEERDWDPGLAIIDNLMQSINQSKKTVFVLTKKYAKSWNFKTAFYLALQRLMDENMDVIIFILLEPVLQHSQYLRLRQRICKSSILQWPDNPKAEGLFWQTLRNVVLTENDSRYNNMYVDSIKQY
Method: (§1) The half-maximal effective concentration (EC50) for VTX-2337 activation of TLR8 and TLR7 was assessed in peripheral blood mononuclear cells (PBMCs) from 15 healthy donors and also in HEK293 cells transfected with TLR8 or TLR7 and an NF-κB driven reporter gene. […] Also it was observed that VTX-2337 had no activity on TLR2, TLR3, TLR4, TLR5, TLR6, or TLR9 at concentrations up to 25 μM.

TLR3 = molecular target: T2, TLR3 (Homo sapiens, UniProt O15455); assay: Activity on TLR3; format: cell-based; conditions: concentrations up to 25 μM
T2 sequence (O15455 24-904): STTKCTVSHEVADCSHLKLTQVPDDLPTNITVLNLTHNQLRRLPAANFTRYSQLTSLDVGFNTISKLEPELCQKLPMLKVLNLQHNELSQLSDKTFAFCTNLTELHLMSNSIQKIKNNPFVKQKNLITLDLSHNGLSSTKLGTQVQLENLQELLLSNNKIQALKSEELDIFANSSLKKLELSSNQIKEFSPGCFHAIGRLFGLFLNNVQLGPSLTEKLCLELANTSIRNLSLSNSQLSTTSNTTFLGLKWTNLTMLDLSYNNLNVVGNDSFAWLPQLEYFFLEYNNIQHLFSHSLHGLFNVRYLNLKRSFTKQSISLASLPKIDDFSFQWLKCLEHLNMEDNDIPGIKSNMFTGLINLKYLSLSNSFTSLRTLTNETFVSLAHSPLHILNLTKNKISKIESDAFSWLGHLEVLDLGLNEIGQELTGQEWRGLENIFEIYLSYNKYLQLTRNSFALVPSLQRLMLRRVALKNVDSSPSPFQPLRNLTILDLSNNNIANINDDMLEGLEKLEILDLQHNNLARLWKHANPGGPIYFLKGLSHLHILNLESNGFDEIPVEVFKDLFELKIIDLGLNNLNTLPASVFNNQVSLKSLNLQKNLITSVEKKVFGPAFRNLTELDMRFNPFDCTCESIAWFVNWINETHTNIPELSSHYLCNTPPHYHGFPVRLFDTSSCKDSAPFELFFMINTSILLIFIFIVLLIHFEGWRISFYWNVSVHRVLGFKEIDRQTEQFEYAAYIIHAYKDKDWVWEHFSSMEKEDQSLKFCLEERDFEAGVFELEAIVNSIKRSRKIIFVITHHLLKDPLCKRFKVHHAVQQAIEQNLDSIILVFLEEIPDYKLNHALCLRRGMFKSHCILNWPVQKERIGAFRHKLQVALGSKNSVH
Method: as §1

CCCN(CCC)C(=O)C1=Cc2ccc(-c3ccc(C(=O)N4CCCC4)cc3)cc2N=C(N)C1 [VTX-2337, 2-amino-N,N-dipropyl-8-(4-(pyrrolidine-1-carbonyl)phenyl)-3H-benzo[b]azepine-4-carboxamide]
EC50 (TLR8; PBMCs from 15 healthy donors): 0.074 µM
selectivity for TLR8 relative to TLR7 (TLR8; PBMCs, TNFα vs IFNα EC50): > 45 fold
activity on TLR3 (TLR3): no activity
